# In patent US20240325398A1, “COMBINATION THERAPIES” (Infinity Pharmaceuticals, Inc., priority 2014, published 2024):
# Key:
# DOHH2 = test: Compound 1 with dexamethasone, CellTiter-Glo viability 72 h, combination index; assay type: cell-based; conditions: DOHH2
# Method: (§1) The effects of Compound 1 with dexamethasone were examined in a panel of cell lines. Cells were cultured and assayed as follows. Compound 1 was serially diluted with cell culture medium and various DMSO concentrations. The top concentration of Compound 1 exposed to cells was 3 uM for cell lines other than WSU-NHL and DOHH2. For WSU-NHL and DOHH2 cell lines, the top concentration of Compound 1 exposed to the cells was 0.3 uM. Dexamethasone was serially diluted in culture media and phosphate buffered saline (PBS). The top concentration of dexamethasone used on cells was 3 uM. Cells were at least 73% viable and were counted and diluted for plating at a density of about 92,000 cell/mL, 130 uL cells per well in 96 well plates for SUDHL6, Karpas 422, SUDHL4, WSU-NHL, RL, and DOHH2 cell lines. The SUDHL10 cell line was plated at a density of about 46,000 cells/mL, 130 uL cells per well in 96 well plates.
# (§2) Various concentrations of Compound 1 and various combinations of dexamethasone were added to various wells of cells. Single agents (Compound 1 or dexamethasone alone) were also added to some wells of cells. Cells were incubated with compounds for 72 hours. To assay for effects of the compounds on cell viability, a CellTiter-Glo® luminescent cell viability assay (commercially available) was used. To each plate of cells, 100 uL CellTiter-Glo reagent was added, incubated, and luminescence quantified using a […].
# The results for cell line DOHH2 are depicted in FIG. 11 and Table 11. […] Table 11 depicts combination index (CI) values for different combinations of dexamethasone/Compound 1 concentrations.
# SUDHL6 = test: as above; assay type: cell-based; conditions: SUDHL6
# Method: as §1, §2
# The result for cell line SUDHL6 is depicted in FIG. 12 and in Table 12. […] Table 12 depicts combination index (CI) values for different combinations of dexamethasone/Compound 1 concentrations.
smiles,measurement,setting,value
"C[C@H](Nc1ncnc2[nH]cnc12)c1cc2cccc(Cl)c2c(=O)n1-c1ccccc1 [Compound 1, (S)-3-(1-((9H-purin-6-yl)amino)ethyl)-8-chloro-2-phenylisoquinolin-1(2H)-one]",combination index (CI),DOHH2; Compound 1 100 nM + Dexamethasone 1.371742 nM,B (B = 0.3 to <0.5)
same,combination index (CI),DOHH2; Compound 1 100 nM + Dexamethasone 4.115226 nM,A (A = 0.0001 to <0.3)
same,combination index (CI),DOHH2; Compound 1 100 nM + Dexamethasone 12.34568 nM,C (C = 0.5 to <0.7)
same,combination index (CI),DOHH2; Compound 1 100 nM + Dexamethasone 37.03704 nM,A (A = 0.0001 to <0.3)
same,combination index (CI),DOHH2; Compound 1 100 nM + Dexamethasone 111.1111 nM,A (A = 0.0001 to <0.3)
same,combination index (CI),DOHH2; Compound 1 100 nM + Dexamethasone 333.3333 nM,A (A = 0.0001 to <0.3)
same,combination index (CI),DOHH2; Compound 1 100 nM + Dexamethasone 1000 nM,A (A = 0.0001 to <0.3)
same,combination index (CI),DOHH2; Compound 1 100 nM + Dexamethasone 3000 nM,A (A = 0.0001 to <0.3)
same,combination index (CI),DOHH2; Compound 1 300 nM + Dexamethasone 1.371742 nM,B (B = 0.3 to <0.5)
same,combination index (CI),DOHH2; Compound 1 300 nM + Dexamethasone 4.115226 nM,B (B = 0.3 to <0.5)
same,combination index (CI),DOHH2; Compound 1 300 nM + Dexamethasone 12.34568 nM,A (A = 0.0001 to <0.3)
same,combination index (CI),DOHH2; Compound 1 300 nM + Dexamethasone 37.03704 nM,A (A = 0.0001 to <0.3)
same,combination index (CI),DOHH2; Compound 1 300 nM + Dexamethasone 111.1111 nM,A (A = 0.0001 to <0.3)
same,combination index (CI),DOHH2; Compound 1 300 nM + Dexamethasone 333.3333 nM,A (A = 0.0001 to <0.3)
same,combination index (CI),DOHH2; Compound 1 300 nM + Dexamethasone 1000 nM,A (A = 0.0001 to <0.3)
same,combination index (CI),DOHH2; Compound 1 300 nM + Dexamethasone 3000 nM,A (A = 0.0001 to <0.3)
same,combination index (CI),SUDHL6; Compound 1 1.4 nM + Dexamethasone 1.4 nM,E (E = >1)
same,combination index (CI),SUDHL6; Compound 1 1.4 nM + Dexamethasone 4.1 nM,E (E = >1)
same,combination index (CI),SUDHL6; Compound 1 1.4 nM + Dexamethasone 12.3 nM,E (E = >1)
same,combination index (CI),SUDHL6; Compound 1 1.4 nM + Dexamethasone 37 nM,E (E = >1)
same,combination index (CI),SUDHL6; Compound 1 1.4 nM + Dexamethasone 111.1 nM,A (A = 0.0001 to <0.3)
same,combination index (CI),SUDHL6; Compound 1 1.4 nM + Dexamethasone 333.3 nM,A (A = 0.0001 to <0.3)
same,combination index (CI),SUDHL6; Compound 1 1.4 nM + Dexamethasone 1000 nM,A (A = 0.0001 to <0.3)
same,combination index (CI),SUDHL6; Compound 1 1.4 nM + Dexamethasone 3000 nM,A (A = 0.0001 to <0.3)
same,combination index (CI),SUDHL6; Compound 1 4.1 nM + Dexamethasone 1.4 nM,E (E = >1)
same,combination index (CI),SUDHL6; Compound 1 4.1 nM + Dexamethasone 4.1 nM,B (B = 0.3 to <0.5)
same,combination index (CI),SUDHL6; Compound 1 4.1 nM + Dexamethasone 12.3 nM,E (E = >1)
same,combination index (CI),SUDHL6; Compound 1 4.1 nM + Dexamethasone 37 nM,C (C = 0.5 to <0.7)
same,combination index (CI),SUDHL6; Compound 1 4.1 nM + Dexamethasone 111.1 nM,A (A = 0.0001 to <0.3)
same,combination index (CI),SUDHL6; Compound 1 4.1 nM + Dexamethasone 333.3 nM,A (A = 0.0001 to <0.3)
same,combination index (CI),SUDHL6; Compound 1 4.1 nM + Dexamethasone 1000 nM,A (A = 0.0001 to <0.3)
same,combination index (CI),SUDHL6; Compound 1 4.1 nM + Dexamethasone 3000 nM,A (A = 0.0001 to <0.3)
same,combination index (CI),SUDHL6; Compound 1 12.3 nM + Dexamethasone 1.4 nM,E (E = >1)
same,combination index (CI),SUDHL6; Compound 1 12.3 nM + Dexamethasone 4.1 nM,E (E = >1)
same,combination index (CI),SUDHL6; Compound 1 12.3 nM + Dexamethasone 12.3 nM,E (E = >1)
same,combination index (CI),SUDHL6; Compound 1 12.3 nM + Dexamethasone 37 nM,E (E = >1)
same,combination index (CI),SUDHL6; Compound 1 12.3 nM + Dexamethasone 111.1 nM,A (A = 0.0001 to <0.3)
same,combination index (CI),SUDHL6; Compound 1 12.3 nM + Dexamethasone 333.3 nM,A (A = 0.0001 to <0.3)
same,combination index (CI),SUDHL6; Compound 1 12.3 nM + Dexamethasone 1000 nM,A (A = 0.0001 to <0.3)
same,combination index (CI),SUDHL6; Compound 1 12.3 nM + Dexamethasone 3000 nM,A (A = 0.0001 to <0.3)
same,combination index (CI),SUDHL6; Compound 1 37 nM + Dexamethasone 1.4 nM,E (E = >1)
same,combination index (CI),SUDHL6; Compound 1 37 nM + Dexamethasone 4.1 nM,E (E = >1)
same,combination index (CI),SUDHL6; Compound 1 37 nM + Dexamethasone 12.3 nM,E (E = >1)
same,combination index (CI),SUDHL6; Compound 1 37 nM + Dexamethasone 37 nM,E (E = >1)
same,combination index (CI),SUDHL6; Compound 1 37 nM + Dexamethasone 111.1 nM,A (A = 0.0001 to <0.3)
same,combination index (CI),SUDHL6; Compound 1 37 nM + Dexamethasone 333.3 nM,A (A = 0.0001 to <0.3)
same,combination index (CI),SUDHL6; Compound 1 37 nM + Dexamethasone 1000 nM,A (A = 0.0001 to <0.3)
same,combination index (CI),SUDHL6; Compound 1 37 nM + Dexamethasone 3000 nM,A (A = 0.0001 to <0.3)
